Experiment [1] has as its system Aedes aegypti. The experiment is described as follows: In vitro Warm Body assay, mosquitoes landing on treated warm body. In kind it is in vivo. Conditions: for pest or weed control at 0.04 % / pest or weed control at 0.0016 %: Aedes aegypti, read-out: decrease of landings. As for the experimental part: The arthropod controlling effect according to the present invention is determined on mosquitoes using an adapted Warm Body assay as defined in Kröber T, Kessler S, Frei J, Bourquin M, Guerin P M. An in vitro assay for testing mosquito controlling compounds employing a warm body and carbon dioxide as a behavioral activator. J Am Mosq Control Assoc. 2010; 26:381-386.
The controlling effect according to the present invention is determined by testing the Warm Body assay against the yellow fever mosquito, Aedes aegypti Rockefeller strain. […] Observations of controlling efficacy were made on host-seeking females of uniform age, 5 to 10 days old selected as mentioned in the publication mentioned hereinabove. Tested hungry females had access to 10% sugar solution but were not blood-fed.
The published protocol has been adapted in not manually counting the landing mosquitoes but automatically using an automatic counting software, the switch from Anopheles gambiae to A. aegypti led to a decrease of mosquitoes' number placed in the tested cage due to the size difference (i.e. 30 mosquitoes instead of 50) and to an increase of lighting as A. aegypti is a diurnal mosquitoes (i.e. 150 lux instead of 4 lux).
The controlling effect according to the present invention is determined by testing the Warm Body assay against the yellow fever mosquito, A. aegypti Rockefeller strain. […] Observations of controlling efficacy were made on host-seeking females of uniform age, 5 to 10 days old selected as mentioned in the publication mentioned hereinabove. Tested hungry females had access to 10% sugar solution but were not blood-fed.
The controlling effect according to the present invention was assessed using an adapted Warm Body assay as defined in Kröber T, Kessler S, Frei J, Bourquin M, Guerin P M. An in vitro assay for testing mosquito controlling compounds employing a warm body and carbon dioxide as a behavioral activator. J Am Mosq Control Assoc. 2010; 26:381-386.
The published protocol has been adapted in not manually counting the landing mosquitoes but automatically using an automatic counting software, the switch from Anopheles gambiae to Aedes aegypti led to a decrease of mosquitoes' number placed in the tested cage due to the size difference (i.e. 30 mosquitoes instead of 50) and to an increase of lighting as Aedes aegypti is a diurnal mosquitoes (i.e. 150 lux instead of 4 lux).
In this in-vitro assay the number of A. aegypti landing on a warm body treated with the tested stimuli was measured in order to assess the repellency effect. Three replicates were carried on the three different doses: 0.0016%, 0.04% and 1% in ethanol, using 25 A. aegypti 10-12 days old females per cage.
In this in-vitro assay, the number of Aedes aegypti landing on a warm body treated with the tested stimuli was measured in order to assess the repellency effect. Three replicates were carried on the three different doses: 0.0016%, 0.04% and 1% in ethanol.
In this in-vitro assay, the number of Aedes aegypti landing on a warm body treated with the tested stimuli was measured in order to assess the repellency effect. One replicate was carried at different doses ranging from 0.0016% up to 1% in ethanol.

Experiment [2] relates to Ixodes ricinus. The experiment is described as follows: In vitro Warm Plate Assay for ticks. In kind it is in vivo. Conditions: for concentration at which the level of 85% of ticks affected is reached: Tables 10 and 12. As for the experimental part: Repellent efficacy of the different compounds was assessed against the sheep tick, Ixodes ricinus. I. ricinus is one of the recommended model organisms mentioned by the Guidance on the European Biological Products Regulation [Vol II, Efficacy-Assessment & Evaluation (Parts B+C), v. 3.0, April 2018]. Observations of repellent efficacy were made on last stage nymphs.
The repellent efficacy was assessed using the protocol of the in-vitro Warm Plate Assay as defined in Kröber T, Bourquin M, Guerin P M. A standardized in vivo and in vitro test method for evaluating tick repellents. Pesticide Biochemistry and Physiology. 2013; 107 (2): 160-168.].
The mean±SD number of ticks Ixodes ricinus walking down (affected), falling (affected) or walking-up (non affected) from the warm plate treated with ethanol, N,N-diethyl-3-methylbenzamide, (2,5-dimethyl-2,3-dihydro-1H-inden-2yl)methanol (Ingredient 2) or (2,4,6-trimethyl-2,3-dihydro-1H-inden-2-yl)methanol (Ingredient 1) diluted in ethanol at 0.4 mg/ml and 10 mg/mL was assessed on n groups of 12 ticks (n=2-5).
In this in-vitro assay, the percentage of ticks Ixodes ricinus affected by the stimulus loaded on the warm plate was measured in order to assess the repellency effect. Twelve ticks were assessed per concentrations that goes from 0.0016% up to 1% in ethanol.
Using the same in-vitro setup, the effect on ticks behavior (n≥12) of different stimuli diluted in ethanol at 20% (w/w) was assessed overtime.

Setting [3] is: Ixodes ricinus, 0.04% (Table 10), read-out: percentage of ticks affected on the Warm Plate.
Setting [4] is: Ixodes ricinus, 0.2% (Table 10), read-out: percentage of ticks affected on the Warm Plate.
Setting [5] is: Ixodes ricinus, 1% (Table 10), read-out: percentage of ticks affected on the Warm Plate.
[6] abbreviates: Ixodes ricinus, 0.0016% (Table 11), read-out: percentage of ticks affected on the Warm Plate.
Where [7] appears, read: Ixodes ricinus, 0.04% (Table 11), read-out: percentage of ticks affected on the Warm Plate.
The mark [8] stands for this setting: Ixodes ricinus, 1% (Table 11), read-out: percentage of ticks affected on the Warm Plate.

The source of these data is patent US20260068882A1, “ARTHROPOD CONTROLLING COMPOSITION” (Firmenich SA, priority 2019, published 2026).

Where a name gives a salt, the structure may show the parent alone. Read-outs that look alike come from different tables or passages of the source.

As for `Cc1ccc2c(c1)CCC(C)(CO)C2` (racemic) [(+−)-(2,6-dimethyl-1,2,3,4-tetrahydro-2-naphthalenyl)methanol], the “number of mosquitoes landed on the Warm Body” value (shortened to “number of mosquitoes landed”) in experiment [1] (0.0016% in ethanol (Table 6)) was found to be 57; in experiment [1] (0.04% in ethanol (Table 6)) it was 65; in experiment [1] (1% in ethanol (Table 6)), 3. Also, the pest or weed control at 0.04 % in experiment [2] (setting [3]) was found to be 8%. Moreover, the pest or weed control at 0.2 % in experiment [2] (setting [4]) was determined as 71%. The pest or weed control at 1 % in experiment [2] (setting [5]) was 100%.
Turning to `Cc1ccc2c(c1)CC(CO)C2` (racemic) [(+−)-(5-methyl-2,3-dihydro-1H-inden-2-yl)methanol], the “number of mosquitoes landed” value in experiment [1] (0.0016% in ethanol (Table 6)) came to 65; in experiment [1] (0.04% in ethanol (Table 6)) it was 7; in experiment [1] (1% in ethanol (Table 6)), 5. Besides, the pest or weed control at 0.04 % in experiment [2] (setting [3]) amounted to 0%. In addition, in experiment [2] (setting [4]), the pest or weed control at 0.2 % amounted to 100%. The pest or weed control at 1 % in experiment [2] (setting [5]) worked out at 100%. For the same compound, the “concentration at which the level of 85% of ticks affected is reached” value in experiment [2] was 0.2%.
With `Cc1cc(C)c2c(c1)CC(C)(CO)C2` (racemic) [ingredient #1, (2,4,6-trimethyl-2,3-dihydro-1H-inden-2-yl)methanol], the “mosquitoes landing on the warm body” value in experiment [1] (1% in ethanol (FIG. 8)) is recorded as “no mosquito landed”. Besides, the pest or weed control at 0.04 % in experiment [1] is 88%; in experiment [2] (setting [7]) it was 57%; in experiment [2] (Ixodes ricinus, 0.04% in ethanol (Table 12), read-out: percentage of ticks affected on the Warm Plate), 57%. Moreover, the “MEAN % affected (ticks)” value in experiment [2] (0.4 mg/mL in ethanol (Table 5)) is 67%; in experiment [2] (10 mg/mL in ethanol (Table 5)), 100%. In experiment [2] (0.04%), the “ticks non-affected over 12 (in words)” value is “three and five ticks over 12 being non-affected”. In addition, the “ticks affected / not affected over 12 (in words)” value in experiment [2] (1%) is on record as “all the ticks being affected”. Besides, the pest or weed control at 0.0016 % was 20% in experiment [2] (setting [6]) and 20% in experiment [2] (Ixodes ricinus, 0.0016% in ethanol (Table 12), read-out: percentage of ticks affected on the Warm Plate). Further, the pest or weed control at 0.0053 % in experiment [2] (Ixodes ricinus, 0.0053% in ethanol (Table 12), read-out: percentage of ticks affected on the Warm Plate) was determined as 7%. Besides, the pest or weed control at 0.008 % in experiment [2] (Ixodes ricinus, 0.008% in ethanol (Table 12), read-out: percentage of ticks affected on the Warm Plate) came to 8%. The pest or weed control at 0.0119 % in experiment [2] (Ixodes ricinus, 0.0119% in ethanol (Table 12), read-out: percentage of ticks affected on the Warm Plate) is 23%. In experiment [2] (Ixodes ricinus, 0.0178% in ethanol (Table 12), read-out: percentage of ticks affected on the Warm Plate), the pest or weed control at 0.0178 % is 0%. For the same compound, the pest or weed control at 0.0267 % in experiment [2] (Ixodes ricinus, 0.0267% in ethanol (Table 12), read-out: percentage of ticks affected on the Warm Plate) was 7%. The pest or weed control at 0.0598 % in experiment [2] (Ixodes ricinus, 0.0598% in ethanol (Table 12), read-out: percentage of ticks affected on the Warm Plate) worked out at 13%. Also, in experiment [2] (Ixodes ricinus, 0.089% in ethanol (Table 12), read-out: percentage of ticks affected on the Warm Plate), the pest or weed control at 0.089 % was found to be 41%. The pest or weed control at 0.2 % in experiment [2] (Ixodes ricinus, 0.2% in ethanol (Table 12), read-out: percentage of ticks affected on the Warm Plate) came to 85%. Also, in experiment [2] (Ixodes ricinus, 0.447% in ethanol (Table 12), read-out: percentage of ticks affected on the Warm Plate), the pest or weed control at 0.447 % amounted to 92%. In addition, the pest or weed control at 1 % in experiment [2] (setting [8]) turned out to be 96%; in experiment [2] (Ixodes ricinus, 1% in ethanol (Table 12), read-out: percentage of ticks affected on the Warm Plate) it was 96%.
As to `Cc1ccc2c(c1)CC(C)(C(C)O)C2` (stereo not shown) [1-(2,5-dimethyl-2-indanyl)-1-ethanol], the pest or weed control at 0.04 % is about 70% in experiment [1] and 0% in experiment [2] (setting [7]). For the same compound, the pest or weed control at 0.0016 % in experiment [2] (setting [6]) was 15%. Moreover, in experiment [2] (setting [8]), the pest or weed control at 1 % stood at 100%.
Consider `OCC1Cc2ccccc2C1` [2,3-dihydro-1H-inden-2-ylmethanol], for which the “number of mosquitoes landed” value in experiment [1] (0.0016% in ethanol (Table 6)) is listed as 32; in experiment [1] (0.04% in ethanol (Table 6)), 1. Also, in experiment [2] (setting [3]), the pest or weed control at 0.04 % stood at 29%. Moreover, in experiment [2] (setting [4]), the pest or weed control at 0.2 % stood at 100%. Further, in experiment [2] (setting [5]), the pest or weed control at 1 % was found to be 92%. Moreover, in experiment [2], the “concentration at which the level of 85% of ticks affected is reached” value came to 0.2%.
Regarding `N#CC1Cc2ccccc2C1` [2,3-dihydro-1H-indene-2-carbonitrile], the “number of mosquitoes landed” value in experiment [1] (0.0016% in ethanol (Table 6)) is 59; in experiment [1] (0.04% in ethanol (Table 6)), 13. In experiment [2] (setting [3]), the pest or weed control at 0.04 % came out at 29%. In addition, the pest or weed control at 0.2 % in experiment [2] (setting [4]) is 71%. The pest or weed control at 1 % in experiment [2] (setting [5]) turned out to be 100%.
As for `COCC1(C)Cc2ccc(C)cc2C1` (stereo not shown) [(2,5-dimethyl-2,3-dihydro-1H-inden-2-yl)methyl methyl ether], the “decrease of the number of landing” value in experiment [1] (1% in ethanol (FIG. 9)) amounted to 86%. Moreover, the pest or weed control at 0.0016 % in experiment [1] was 4 to 29%; in experiment [2] (setting [6]), 0%. Further, the pest or weed control at 0.04 % in experiment [2] (setting [7]) came to 17%. The pest or weed control at 1 % in experiment [2] (setting [8]) stood at 79%.
`Cc1ccc2c(c1)CC(C)(COC=O)C2` (stereo not shown) [(2,5-dimethyl-2-indanyl)methyl formate]: the pest or weed control at 0.0016 % in experiment [1] was 4 to 29%; in experiment [2] (setting [6]) it was 0%. In addition, the pest or weed control at 0.04 % in experiment [2] (setting [7]) is 7%. Also, in experiment [2] (setting [8]), the pest or weed control at 1 % came out at 85%.
For the compound `CC1(CO)Cc2ccccc2C1` [(2-methyl-1,3-dihydroinden-2-yl)methanol], the “number of mosquitoes landed” value is 65 in experiment [1] (0.0016% in ethanol (Table 6)), 16 in experiment [1] (0.04% in ethanol (Table 6)) and 1 in experiment [1] (1% in ethanol (Table 6)). Further, the pest or weed control at 0.0016 % in experiment [2] (setting [6]) worked out at 0%. Also, the pest or weed control at 0.04 % in experiment [2] (setting [7]) was 14%. Also, the pest or weed control at 1 % in experiment [2] (setting [8]) is 92%.
